From patent US11279702B2, “AMPK activators” (Kallyope, Inc., priority 2020, dated 2022)

Tests used:
[1] = molecular target: T1, Recombinant AMPK α1/β1/γ1 complex (Homo sapiens (Human), UniProt Q13131+Q9Y478); experiment: In vitro pAMPK1 kinase activation assay (ADP-Glo, SAMS peptide); assay type: biochemical; settings: for EC50: AMPK α1/β1/γ1 pre-activated with CAMKK2, 12-point curve; for activation at 10 µM: relative to reference compound MK-8722
Description: Compound effect on AMPK enzyme activation was determined in a cell-free format with a 12-point concentration curve. The ADP-Glo detection system was used to determine phosphorylation of a SAMS peptide substrate. Recombinant AMPK α1/β1/γ1 complex was pre-activated by phosphorylation with CAMKK2 followed by incubated with compound for 15 minutes prior to the SAMS phosphorylation reaction. Activity curves and EC50 values were fitted by interpolation to an ATP:ADP standard curve as indicated by the ADP-Glo manufacturer using Prism software. Activity at 10 μM is reported relative to a reference compound, MK-8722 (Science 2017, 357(6350):507-511).

[2] = Pharmacokinetics (oral bioavailability, IV parameters); settings: mouse, in vivo, C57BL/6 mice; for bioavailability: IV 1 mg/kg, PO 30 mg/kg; for half-life / Vd: IV administration 1 mg/kg; for Vd: read-out: volume of distribution
Description: Compounds were tested for pharmacokinetics in C57BL/6 mice. Compounds 2, 4, and A1 were dosed IV at 1 mg/kg as a formulation of 0.5 mg/mL in 5% DMSO+30% PEG400+65% water and PO at 30 mg/kg as a formulation of 6 mg/mL in 0.25% MC+5% Tween 80+0.02% SDS. Compound 1 was dosed IV at 1 mg/kg as a formulation of 0.50 mg/mL in 5% DMSO+30% PEG400+65% water and PO at 30 mg/kg as a formulation of 6 mg/mL in 0.5% MC+0.5% Tween 80.

[3] = tested on: Mouse In Vivo Acute Dextran Sulfate Sodium (DSS) Colitis Model; experiment: Intestinal barrier function in acute DSS colitis model (FITC-dextran); parameters: species or system C57Bl/6 mice
Description: Vehicle or a dose of Compound A1 or Compound 1 was administered once daily by oral gavage to C57Bl/6 mice. After 3 days of pre-dosing, dextran sulfate sodium (DSS) was simultaneously administered at 2.5-3% in drinking water, and appropriate water-only controls were included.
After 6 days of DSS administration, animals treated with Compound A1 were switched back to their regular water source and a 24-hour wash-out of both DSS and compound was provided. The animals were fasted on the morning of take-down and administered a single oral bolus dose of FITC-dextran. The animals were sacrificed by cardiac puncture 4 hours after administration and plasma was collected. The concentration of FITC-dextran present in plasma was determined by measuring fluorescence intensity on a standard plate reader, and fitting values back to a standard curve.
After 7 days of DSS administration, animals treated with Compound 1 were switched back to their regular water source and the animals were administered a single oral bolus dose of FITC-dextran (FD) four hours prior to necropsy. The animals were sacrificed by cardiac puncture and serum was collected. The concentration of FITC-dextran present in serum was determined by measuring fluorescence intensity on a standard plate reader, and fitting values back to a standard curve.

[4] = tested on: Madin-Darby Canine Kidney (MDCK) cells; experiment: In vitro MDCK epithelial permeability assay (FITC-dextran, calcium switch); assay type: cell-based; settings: low calcium medium, MDCK monolayers
Description: In order to quantitatively measure the effects of transporter substrate AMPK activators on epithelial permeability in vitro, standard calcium switch protocols from the literature were adapted for use with Madin-Darby Canine Kidney (MDCK) cells grown on Corning Transwell inserts for use with fluorescein isothiocyanate-dextran, average molecular weight 4 kDa (FITC-dextran). FITC-dextran is a large, metabolically inert sugar molecule that is not readily transferrable across healthy epithelial barriers in vitro or in vivo. This compound has been tagged with a fluorophore to easily track its movement.
Briefly, MDCK cells were seeded onto Transwell inserts and grown according to manufacturer instructions until confluent. On the day of the experiment, a baseline reading was taken in standard growth media in which FITC-dextran was spiked into the apical chamber and the percent permeation of FITC-dextran from the apical to the basolateral chamber was measured. The inserts were then washed in low calcium medium (LCM) containing either vehicle or compound to remove residual FITC-dextran and calcium, and FITC-dextran was once again spiked into the apical chamber and the percent permeation in LCM was measured. Values were determined by reading fluorescence intensity on a standard plate reader and calculated by fitting back to 12-point standard curve in either growth media or LCM+vehicle, respectively. The fold induction of FITC-dextran permeation to the basolateral chamber when each well was transferred from baseline growth media to LCM was then calculated.

[5] = tested on: Mouse In Vivo Chemotherapy-Induced Intestinal Injury Model; experiment: Diarrhea in chemotherapy (5FU)-induced intestinal injury model; parameters: species or system BALB/c mice
Description: Compounds were formulated in vehicle (0.25% methyl cellulose, 5% Tween 80, 0.02% sodium dodecyl sulfate (SDS) in Hanks' Buffered Salt Solution with Ca2+ and Mg2+). On day 1, either saline or a 400 mg/kg dose of 5-fluorouracil (5FU) in saline was administered by intraperitoneal injection to BALB/c mice. Starting on day 2, vehicle or compound was administered once or twice a day by oral gavage. In some instances, compound was also administered once or twice a day by oral gavage from day −3 to day −1 (pre-5FU). From days 5 to 6 post-5FU, the animals were scored for diarrhea severity once a day. The diarrhea was scored 0-3 as follows: 0—normal consistency (black and solid), 1—soft (black and a bit lighter/yellow), 2—loosely shaped stool (yellowish and somewhat watery), 3—extreme diarrhea (very watery). Day 5 and day 6 diarrhea scores following administration of certain compounds were lower than vehicle control mice. […] In addition, Compound 1 was efficacious at doses as low as 3 mg/kg BID (6 mg/kg total daily dose).

[6] = molecular target: T1, Recombinant AMPK α1/β1/γ1 complex; experiment: In vitro pAMPK1 kinase activation assay (ADP-Glo, SAMS peptide); assay type: biochemical; settings: at 10 μM

T1 sequence (Q13131 whole entry): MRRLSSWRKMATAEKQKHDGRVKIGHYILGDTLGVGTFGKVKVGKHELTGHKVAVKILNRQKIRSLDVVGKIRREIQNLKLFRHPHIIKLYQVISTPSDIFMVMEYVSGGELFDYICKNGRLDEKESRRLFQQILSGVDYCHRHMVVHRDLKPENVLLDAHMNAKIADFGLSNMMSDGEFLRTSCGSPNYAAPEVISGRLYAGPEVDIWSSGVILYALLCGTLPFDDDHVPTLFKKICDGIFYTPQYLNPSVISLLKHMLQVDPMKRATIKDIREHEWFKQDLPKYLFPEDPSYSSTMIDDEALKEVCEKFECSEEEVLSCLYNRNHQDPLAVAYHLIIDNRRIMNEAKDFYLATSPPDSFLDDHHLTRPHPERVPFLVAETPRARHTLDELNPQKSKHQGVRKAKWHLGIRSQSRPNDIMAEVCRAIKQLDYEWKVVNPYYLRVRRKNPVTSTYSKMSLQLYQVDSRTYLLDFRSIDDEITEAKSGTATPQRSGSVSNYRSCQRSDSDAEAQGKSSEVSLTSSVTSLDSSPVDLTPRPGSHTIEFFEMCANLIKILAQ
T1 sequence (Q9Y478 whole entry): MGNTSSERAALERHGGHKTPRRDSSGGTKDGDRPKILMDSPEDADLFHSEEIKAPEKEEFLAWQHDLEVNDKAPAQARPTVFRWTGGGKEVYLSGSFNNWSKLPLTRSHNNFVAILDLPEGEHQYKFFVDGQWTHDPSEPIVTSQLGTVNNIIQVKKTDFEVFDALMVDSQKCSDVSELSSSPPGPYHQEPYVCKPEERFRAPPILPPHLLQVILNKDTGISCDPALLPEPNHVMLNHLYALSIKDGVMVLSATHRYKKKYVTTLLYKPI
T1 sequence (P54619 whole entry partner): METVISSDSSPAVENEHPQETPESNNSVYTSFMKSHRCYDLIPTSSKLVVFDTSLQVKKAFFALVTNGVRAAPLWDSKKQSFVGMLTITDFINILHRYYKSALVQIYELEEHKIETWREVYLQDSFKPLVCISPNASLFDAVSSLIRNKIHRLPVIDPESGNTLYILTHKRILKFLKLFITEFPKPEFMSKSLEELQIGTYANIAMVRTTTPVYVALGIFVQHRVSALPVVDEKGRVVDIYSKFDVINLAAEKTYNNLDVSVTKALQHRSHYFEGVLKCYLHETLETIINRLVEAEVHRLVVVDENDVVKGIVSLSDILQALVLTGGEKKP

SMILES: O=C(O)CSc1nc2cc(-c3ccc(-c4ccccc4O)cc3)c(Cl)cc2[nH]1 [Compound A1]
- EC50 [1]: 200 nM
- activation at 10 µM [1]: 48%
- bioavailability [2]: < 1%
- half-life [2]: 4.8 h
- Vd [2]: 2.4 L/kg
- Change in Fluorescence Intensity vs. Vehicle ([3]; 30 mg/kg PO once daily, plasma, 6 days DSS then 24-hour wash-out): −60%
- reduction of FITC-dextran permeation relative to vehicle ([4]; 0.1 μM): 40%
- reduction of FITC-dextran permeation relative to vehicle ([4]; 1 μM): 61%
- Diarrhea Score % Change vs. Vehicle ([5]; 30 mg/kg QD, Day 5): +38%
- Diarrhea Score ([5]; 30 mg/kg QD, Day 5, score 0-3): 1.38
- Diarrhea Score % Change vs. Vehicle ([5]; 30 mg/kg QD, Day 6): −29%
- Diarrhea Score ([5]; 30 mg/kg QD, Day 6, score 0-3): 1.25
- activation compared with AMP [6]: activation greater than that displayed by AMP

SMILES: O=C(O)CSc1nc2nc(-c3ccc(-c4ccccc4O)cc3)c(Cl)cc2[nH]1 [Compound 1, 2-((6-chloro-5-(2′-hydroxy-[1,1′-biphenyl]-4-yl)-1H-imidazo[4,5-b]pyridin-2-yl)thio)acetic Acid]
- potency relative to Compound A1 [1]: > 100 fold
- EC50 [1]: 1.4 nM
- activation at 10 µM [1]: 35%
- bioavailability [2]: < 1%
- half-life [2]: 1.9 h
- Vd [2]: 0.7 L/kg
- Change in Fluorescence Intensity vs. Vehicle ([3]; 3 mg/kg PO once daily, serum, 7 days DSS): −35%
- Change in Fluorescence Intensity vs. Vehicle ([3]; 10 mg/kg PO once daily, serum, 7 days DSS): −69%
- Change in Fluorescence Intensity vs. Vehicle ([3]; 30 mg/kg PO once daily, serum, 7 days DSS): −80%
- Change in Fluorescence Intensity vs. Vehicle ([3]; 100 mg/kg PO once daily, serum, 7 days DSS): −96%
- reduction of FITC-dextran permeation relative to vehicle ([4]; 0.1 μM): 48%
- reduction of FITC-dextran permeation relative to vehicle ([4]; 1 μM): 62%
- Diarrhea Score % Change vs. Vehicle ([5]; 3 mg/kg BID, Day 5): −17%
- Diarrhea Score ([5]; 3 mg/kg BID, Day 5, score 0-3): 0.50
- Diarrhea Score % Change vs. Vehicle ([5]; 3 mg/kg BID, Day 6): −56%
- Diarrhea Score ([5]; 3 mg/kg BID, Day 6, score 0-3): 0.75
- Diarrhea Score % Change vs. Vehicle ([5]; 10 mg/kg BID, Day 5): −28%
- Diarrhea Score ([5]; 10 mg/kg BID, Day 5, score 0-3): 0.43
- Diarrhea Score % Change vs. Vehicle ([5]; 10 mg/kg BID, Day 6): −71%
- Diarrhea Score ([5]; 10 mg/kg BID, Day 6, score 0-3): 0.50
- Diarrhea Score % Change vs. Vehicle ([5]; 30 mg/kg BID, Day 5): −100%
- Diarrhea Score ([5]; 30 mg/kg BID, Day 5, score 0-3): 0
- Diarrhea Score % Change vs. Vehicle ([5]; 30 mg/kg BID, Day 6): −66%
- Diarrhea Score ([5]; 30 mg/kg BID, Day 6, score 0-3): 0.57
- Diarrhea Score % Change vs. Vehicle ([5]; 30 mg/kg QD, Day 5): −30%
- Diarrhea Score ([5]; 30 mg/kg QD, Day 5, score 0-3): 0.63
- Diarrhea Score % Change vs. Vehicle ([5]; 30 mg/kg QD, Day 6): −58%
- Diarrhea Score ([5]; 30 mg/kg QD, Day 6, score 0-3): 0.75
- Diarrhea Score % Change vs. Vehicle ([5]; 100 mg/kg BID, Day 5): −63%
- Diarrhea Score ([5]; 100 mg/kg BID, Day 5, score 0-3): 0.38
- Diarrhea Score % Change vs. Vehicle ([5]; 100 mg/kg BID, Day 6): −79%
- Diarrhea Score ([5]; 100 mg/kg BID, Day 6, score 0-3): 0.38
- activation compared with AMP [6]: activation greater than that displayed by AMP
